Reference: ChEMBL document CHEMBL1932926, “New substituted C-19-andrographolide analogues with potent cytotoxic activities” (2012)

Experiments:
Assay type in all cases: functional
Conditions in all cases: read-out: ED50 (the source's name)
[1] = system: P388; experiment: Cytotoxicity against mouse P388 cells by SRB assay
[2] = system: KB; experiment: Cytotoxicity against human KB cells by SRB assay
[3] = system: Col2; experiment: Cytotoxicity against human Col2 cells by SRB assay
[4] = system: MCF7; experiment: Cytotoxicity against human MCF7 cells by SRB assay
[5] = system: Lu1; experiment: Cytotoxicity against human Lu1 cells by SRB assay
[6] = Cytotoxicity against rat ASK cells by SRB assay

| Compound | EC50 [1] | EC50 [2] | EC50 [3] | EC50 [4] | EC50 [5] | EC50 [6] |
| --- | --- | --- | --- | --- | --- | --- |
| C=C1CC[C@@H]2[C@](C)(CO[Si](C)(C)C(C)(C)C)[C@H](O)CC[C@@]2(C)[C@@H]1C/C=C1/C(=O)OC[C@H]1O | 8.39 µM | 40.7 µM | 17.1 µM | 47 µM | 48.8 µM | 15.5 µM |
| C=C1CC[C@@H]2[C@](C)(CO[Si](C)(C)C(C)(C)C)[C@H](OC(C)=O)CC[C@@]2(C)[C@@H]1C/C=C1/C(=O)OC[C@H]1O | 1.71 µM | 11.2 µM | 11.3 µM | 9.79 µM | 9.62 µM | 8.17 µM |
| C=C1CC[C@@H]2[C@](C)(CO[Si](C)(C)C(C)(C)C)[C@H](O)CC[C@@]2(C)[C@@H]1C/C=C1/C(=O)OC[C@H]1OC(C)=O | 1.03 µM | 10.7 µM | 8.94 µM | 10.4 µM | 10.4 µM | 3.41 µM |
| C=C1CC[C@@H]2[C@](C)(CO[Si](C)(C)C(C)(C)C)[C@H](OC(C)=O)CC[C@@]2(C)[C@@H]1C/C=C1/C(=O)OC[C@H]1OC(C)=O | 0.34 µM | 3.62 µM | 2.23 µM | 2.84 µM | 2.92 µM | 1.22 µM |
| C=C1CC[C@@H]2[C@](C)(CO[Si](C(C)C)(C(C)C)C(C)C)[C@H](O)CC[C@@]2(C)[C@@H]1C/C=C1/C(=O)OC[C@H]1O | 0.88 µM | 2.73 µM | 2.73 µM | 2.88 µM | 3.01 µM | 2.85 µM |
| C=C1CC[C@@H]2[C@](C)(CO[Si](C(C)C)(C(C)C)C(C)C)[C@H](OC(C)=O)CC[C@@]2(C)[C@@H]1C/C=C1/C(=O)OC[C@H]1OC(C)=O | 1.41 µM | 7.39 µM | 13.6 µM | 14 µM | 18.8 µM | 7.56 µM |
| C=C1CC[C@@H]2[C@](C)(CO[Si](c3ccccc3)(c3ccccc3)C(C)(C)C)[C@H](O)CC[C@@]2(C)[C@@H]1C/C=C1/C(=O)OC[C@H]1O | 0.68 µM | 11.1 µM | 9.65 µM | 8.15 µM | 11.5 µM | 5.54 µM |
| C=C1CC[C@@H]2[C@](C)(CO[Si](c3ccccc3)(c3ccccc3)C(C)(C)C)[C@H](OC(C)=O)CC[C@@]2(C)[C@@H]1C/C=C1/C(=O)OC[C@H]1O | 0.5 µM | 9.86 µM | 3.8 µM | 7.53 µM | 10.9 µM | 10.5 µM |
| C=C1CC[C@@H]2[C@](C)(CO[Si](c3ccccc3)(c3ccccc3)C(C)(C)C)[C@H](O)CC[C@@]2(C)[C@@H]1C/C=C1/C(=O)OC[C@H]1OC(C)=O | 0.33 µM | 10.5 µM | 10.7 µM | 9.63 µM | 11.9 µM | 12 µM |
| C=C1CC[C@@H]2[C@](C)(CO[Si](c3ccccc3)(c3ccccc3)C(C)(C)C)[C@H](OC(C)=O)CC[C@@]2(C)[C@@H]1C/C=C1/C(=O)OC[C@H]1OC(C)=O | 1.67 µM | 29 µM | 12.3 µM | 45.7 µM | 52.9 µM | 32.8 µM |
| C=C1CC[C@@H]2[C@](C)(CO)[C@H](OC(C)=O)CC[C@@]2(C)[C@@H]1C/C=C1/C(=O)OC[C@H]1O | 4.78 µM | 35.6 µM | 27.2 µM | 26.4 µM | 30.6 µM | 58.1 µM |
| C=C1CC[C@@H]2[C@](C)(COC(C)=O)[C@H](O)CC[C@@]2(C)[C@@H]1C/C=C1/C(=O)OC[C@H]1O | 2.04 µM | 15.3 µM | 12.9 µM | 18.2 µM | 14 µM | 16.7 µM |
| C=C1CC[C@@H]2[C@](C)(COC(C)=O)[C@H](OC(C)=O)CC[C@@]2(C)[C@@H]1C/C=C1/C(=O)OC[C@H]1O | 2.65 µM | 35.2 µM | 15.3 µM | 19.7 µM | 34.7 µM | 22.4 µM |
| C=C1CC[C@@H]2[C@](C)(COC(C)=O)[C@H](O)CC[C@@]2(C)[C@@H]1C/C=C1/C(=O)OC[C@H]1OC(C)=O | 1.62 µM | 26.4 µM | 15.2 µM | 18.5 µM | 19.8 µM | 16.3 µM |
| C=C1CC[C@@H]2[C@](C)(COC(C)=O)[C@H](OC(C)=O)CC[C@@]2(C)[C@@H]1C/C=C1/C(=O)OC[C@H]1OC(C)=O | 1.4 µM | 11.6 µM | 10.8 µM | 10 µM | 12.4 µM | 11.4 µM |
| C=C1CC[C@@H]2[C@](C)(CO)[C@H](OC(C)=O)CC[C@@]2(C)[C@@H]1C/C=C1/C(=O)OC[C@H]1OC(C)=O | 0.69 µM | 11.7 µM | 10.2 µM | 11 µM | 8.75 µM | 11.5 µM |
| C=C1CC[C@@H]2[C@](C)(COC(c3ccccc3)(c3ccccc3)c3ccccc3)[C@H](O)CC[C@@]2(C)[C@@H]1C/C=C1/C(=O)OC[C@H]1O | 0.45 µM | 2.42 µM | 2.73 µM | 2.72 µM | 0.88 µM | 2.86 µM |
| C=C1CC[C@@H]2[C@](C)(COC(c3ccccc3)(c3ccccc3)c3ccccc3)[C@H](OC(C)=O)CC[C@@]2(C)[C@@H]1C/C=C1/C(=O)OC[C@H]1OC(C)=O | 1.92 µM | 9.77 µM | 22.8 µM | 22.7 µM | 8.37 µM | 15.3 µM |
| C=C1CC[C@@H]2[C@]3(C)COC(C)(C)O[C@@H]3CC[C@@]2(C)[C@@H]1C/C=C1/C(=O)OC[C@H]1O | 3.78 µM | 66.5 µM | 39.8 µM | 42.8 µM | 53 µM | 52.2 µM |
| C=C1CC[C@@H]2[C@](C)(CO)[C@H](O)CC[C@@]2(C)[C@@H]1C/C=C1/C(=O)OC[C@H]1O [ANDROGRAPHOLIDE] | 2.25 µM | 27.4 µM | 13.6 µM | 15.4 µM | 13 µM | 16.2 µM |
| Cc1c2ccncc2c(C)c2c1[nH]c1ccccc12 [ELLIPTECINE] | 2.44 µM | 2.46 µM | 2.72 µM | 2.71 µM | 1.62 µM | 3.56 µM |
